Test results as given in patent publication US20260207626A1, “SYNTHETIC TRITERPENOIDS AND COMPOSITIONS THEREOF IN WEIGHT MANAGEMENT, SKELETAL MUSCLE FUNCTION, AND APPETITE SUPPRESSION” (The Board of Regents of the University of Texas System, priority 2022, published 2026).
Several values for one entry are separate records, joined by “and”; a condition that tells them apart may be missing. Equal entries are not always repeated.

Assays:
N171-82Q mice = conditions: cited from earlier work
IκB-α = conditions: Saha et al.; liver homogenates, HFD mice; cited from earlier work
AMPK = conditions: Saha et al.; cited from earlier work
[1] = system: transforming growth factor-β (TGF-β)/Smad signaling; conditions: Suh et al., 2003, Minns et al., 2004, Mix et al.; cited from earlier work
[2] = system: heme-oxygenase-1 and Nrf2/ARE signaling; conditions: Liby et al., 2005; cited from earlier work
MCP-1 = assay: LPS-induced MCP-1 ELISA in RAW264.7 macrophages (CDDO-EA batches); assay type: cell-based, mouse; conditions: for MCP-1 production: LPS-induced, macrophages in cell culture; for MCP-1 level (ELISA), average: Table 4 (two values); for fold difference in the decrease of MCP-1 production: versus LPS alone
Method: Macrophages were pre-treated with 500 nM CDDO-EA #1 or 500 nM CDDO-EA #2, for 1 hour. The microphages were then stimulated with 100 ng/ml of lipopolysaccharide (LPS) for 6 hr. Supernatants were collected from each culture. An enzyme linked immunoassay (ELISA) was performed to detect levels of the pro-inflammatory protein, monocyte chemotactic protein-1 (MCP-1). The macrophages were also treated with LPS alone or with CDDO-EA alone. A control (no treatment) group was also included in the study.
The second batch of CDDO-EA was tested for its biological property of anti-inflammatory activity. As with the first batch of CDDO-EA, this was tested by using the mouse macrophage cell line RAW264.7. RAW264.7 macrophages were pre-treated with 500 nM CDDO-EA for 1 hour then stimulated with 100 ng/ml of lipopolysaccharide (LPS) for 6 hr. Supernatants were collected, and an enzyme linked immunoassay (ELISA) was performed to detect the pro-inflammatory protein, monocyte chemotactic protein-1 (MCP-1). The macrophages were also treated with LPS alone or with CDDO-EA alone. A control (no treatment) group was also included in the study. […] This suppression of MCP-1 production by the second batch CDDO-EA is similar to that observed for the first batch of CDDO-EA. (See FIG. 21).

GLUT4 [3] = assay: Colorimetric assay of cell surface GLUT4 in L6GLUT4myc myotubes (preliminary data); assay type: cell-based, rat; conditions: FIG. 30
Method: Is CDDO-EA-mediated GLUT4 translocation dependent on AMPK activation? The catalytic subunit alpha-1 (α1) of AMPK will be KD by siRNA. Cells will be treated with CDDO-EA (500 nM, 1 hour), insulin ([…] for 15 min), or insulin and CDDO-EA to determine if there is a synergistic effect on GLUT4 translocation. Also, cells will be treated with the AMPK activator, 5-aminoimidazole-4-carboxamide ribonucleoside (AICAR, 1 mM, 40 minutes), as a positive control. We will use a colorimetric assay to quantitatively measure the levels of cell surface GLUT4 in 3T3-L1 adipocytes and L6GLUT4myc myotubes^37. […] GLUT4 translocation will be detected via immunofluorescence. Subcellular protein fractionation will be conducted to detect GLUT4 in the sarcolemma for myotubes and plasma membrane for adipocytes and GLUT2 in the plasma membrane of hepatocytes via Western blotting. GLUT2 will be measured in hepatocytes because GLUT2 is the most abundant glucose transporter in hepatocytes^38. To measure glucose uptake, a non-radioactive, plate-based bioluminescent assay (Glucose Uptake-Glo, Promega) will be performed. Using Glucose Uptake-Glo, insulin induces glucose uptake in L6GLUT4my myotubes. Phosphorylation of AMPK at Thr^172 and phosphorylation of ACC at Ser^79 indicates activation of the AMPK pathway. Thus, phosphorylation of AMPK Thr^172 and ACC Ser^79 will be shown through Western blotting. […]

GLUT4 [4] = assay: GLUT4myc translocation by immunofluorescence in L6-GLUT4myc myotubes; assay type: cell-based, rat; conditions: CDDO-EA 500 nM 1 h; insulin 100 nM 15 min
Method: Immunofluorescence and confocal microscopy were employed to visualize the localization of c-myc epitope-tagged GLUT4 in L6-GLUT4myc myotubes treated with CDDO-EA for 1 h. L6-GLUT4myc myotubes were also treated with insulin alone for 15 min as a positive control.
To examine the properties of CDDO-EA in regulating glucose metabolism in the skeletal muscle, the present study examined whether CDDO-EA induces translocation of GLUT4 to the cell surface (FIG. 16A). Immunofluorescence and confocal microscopy were used to visualize the localization of c-myc epitope-tagged GLUT4 in L6-GLUT4myc cells.
Immunofluorescence microscopy: L6-GLUT4myc myoblasts (4×10^4 cells/ml, 0.2 ml/well) were plated onto Nunc Lab-TekII 8-chamber slides (Thermo Fisher Scientific) and differentiated for 7 days. Myotubes were pre-treated with CDDO-EA 500 nM for 1 h followed by LPS 100 ng/ml (E. coli O111: B4, Sigma Aldrich) treatment for 1 h. After treatment, myotubes were fixed, permeabilized, and stained with anti-NF-κB p65 primary antibody (cat #sc-372, 1:100, Santa Cruz Biotechnology) and a goat anti-rabbit secondary antibody conjugated with Alexa Fluor® 488 (cat #A32731, 1:500, Invitrogen) as previously described. For GLUT4myc cell membrane staining, myotubes were pre-treated with CDDO-EA 500 nM for 1 h followed by LPS 100 ng/ml (E. coli 0111: B4, Sigma Aldrich) treatment for 1 h. Insulin 100 nM (cat #19278, Sigma Aldrich) treatment was for 15 min. After CDDO-EA, LPS, and insulin treatment, myotubes were fixed without permeabilization and stained with anti-c-myc primary antibody (cat #C3956, 1:100, Sigma Aldrich) and a goat anti-rabbit secondary antibody conjugated with Alexa Fluor® 488 (cat #A32731, 1:500, Invitrogen) as previously described.

[5] = Shin et al.; oral gavage 30 μmol/kg three times a week, HFD 82 days; interpretation questioned by the applicant; cited from earlier work
[6] = RAW264.7, 500 nM CDDO-EA batch 1 hour then 100 ng/ml LPS 6 hr
[7] = RAW264.7, 500 nM CDDO-EA batch alone, no LPS
[8] = 500 nM CDDO-EA batch 1 hour then 100 ng/ml LPS 6 hr
[9] = 500 nM CDDO-EA batch alone, no LPS
[10] = Table 5, 500 nM CDDO-EA batch 1 hour then 100 ng/ml LPS 6 hr
[11] = Table 5, 500 nM CDDO-EA batch alone, no LPS

Compound | modulation of TGF-β/Smad signaling [1] | induction of heme-oxygenase-1 and Nrf2/ARE signaling [2] | MCP-1 level (ELISA), individual values (MCP-1; [6]) | MCP-1 level (ELISA), individual values (MCP-1; [7]) | MCP-1 level (ELISA), average (MCP-1; [8]) | MCP-1 level (ELISA), average (MCP-1; [9]) | MCP-1 level (ELISA), mean of four values (MCP-1; [10]) | MCP-1 level (ELISA), mean of four values (MCP-1; [11]) | other results
CC1(C)CC[C@]2(C(=O)NCC(F)(F)F)CC[C@]3(C)[C@H](C(=O)C=C4[C@@]5(C)C=C(C#N)C(=O)C(C)(C)[C@@H]5CC[C@]43C)[C@@H]2C1 [CDDO-TFEA] | – | – | – | – | – | – | – | – | muscle strength and balance, survival (N171-82Q mice; N171-82Q mice): improved muscle strength and balance and increased survival; accumulation in the skeletal muscle (N171-82Q mice; Stack et al. (2010)): accumulated in the skeletal muscle; oxidative stress in skeletal muscle (N171-82Q mice; Stack et al. (2010)): oxidative stress in skeletal muscle was reduced
COC(=O)[C@]12CCC(C)(C)C[C@H]1C1C(=O)C=C3[C@@]4(C)C=C(C#N)C(=O)C(C)(C)[C@@H]4CC[C@@]3(C)[C@]1(C)CC2 (stereo partly drawn) [CDDO-Me, methyl (4aS,6aR,6bS,8aR,12aS,14bS)-11-cyano-2,2,6a,6b,9,9,12a-heptamethyl-10,14-dioxo-1,3,4,5,6,6a,6b,7,8,8a,9,10,12a, 14,14a, 14b-hexadecahydropicene-4a (2H)-carboxylate] | ability to modulate transforming growth factor-β (TGF-β)/Smad signaling | potent inducers of heme-oxygenase-1 and Nrf2/ARE signaling | – | – | – | – | – | – | phosphorylation of IκB-α (IκB-α): increase in phosphorylation of IκB-α; AMPK signaling (AMPK): activated AMPK signaling in isolated mouse hepatocytes and C2C12 muscle cells
CCNC(=O)[C@]12CCC(C)(C)C[C@H]1C1C(=O)C=C3[C@@]4(C)C=C(C#N)C(=O)C(C)(C)[C@@H]4CC[C@@]3(C)[C@]1(C)CC2 (stereo partly drawn) [CDDO-EA #1, (4aS,6aR,6bS,8aR,12aS,14bS)-11-cyano-N-ethyl-2,2,6a,6b,9,9,12a-heptamethyl-10,14-dioxo-1,3,4,5,6,6a,6b,7,8,8a,9,10,12a, 14,14a, 14b-hexadecahydropicene-4a (2H)-carboxamide] | – | – | 30687 and 31996 and 20309 and 17055 | 717 and 655 and 740 and 870 | 31341 | 686 | 25012 | 746 | MCP-1 production (MCP-1; listed as Batch #1 CDDO-EA): 31300 pg/mL; fold difference in the decrease of MCP-1 production (MCP-1; listed as Batch #1 CDDO-EA): about 3.6 fold
Insulin: positive control for GLUT4myc translocation, 100 nM for 15 min [reference compound] | – | – | – | – | – | – | – | – | GLUT4 translocation to the cell surface (colorimetry assay) (GLUT4 [3]): induce GLUT4 translocation to the cell surface; GLUT4myc translocation to the cell surface (GLUT4 [4]): induced GLUT4myc translocation into the cell membrane
CC1(C)CC[C@]2(C(=O)n3ccnc3)CC[C@]3(C)[C@H](C(=O)C=C4[C@@]5(C)C=C(C#N)C(=O)C(C)(C)[C@@H]5CC[C@]43C)[C@@H]2C1 [CDDO-Im] | ability to modulate transforming growth factor-β (TGF-β)/Smad signaling | potent inducers of heme-oxygenase-1 and Nrf2/ARE signaling | – | – | – | – | – | – | energy expenditure (EE) [5]: increases energy expenditure (EE) in mice fed a HFD
CCNC(=O)[C@]12CCC(C)(C)C[C@H]1C1C(=O)C=C3[C@@]4(C)C=C(C#N)C(=O)C(C)(C)[C@@H]4CC[C@@]3(C)[C@]1(C)CC2 (stereo partly drawn) [CDDO-EA #2, (4aS,6aR,6bS,8aR,12aS,14bS)-11-cyano-N-ethyl-2,2,6a,6b,9,9,12a-heptamethyl-10,14-dioxo-1,3,4,5,6,6a,6b, 7,8,8a,9,10,12a, 14,14a, 14b-hexadecahydropicene-4a (2H)-carboxamide] | – | – | 23503 and 25793 and 11890 and 14316 | 481 and 497 and 314 and 587 | 24648 | 489 | 18875 | 470 | MCP-1 production (MCP-1; listed as Batch #2 CDDO-EA): 24600 pg/mL; LPS-induced production of MCP-1 (MCP-1; RAW264.7, 500 nM 1 hour then 100 ng/ml LPS 6 hr): blocked the LPS-induced production of MCP-1; fold difference in the decrease of MCP-1 production (MCP-1; listed as Batch #2 CDDO-EA): ~4.6 fold
